Tests used:
[1] = tested on: sugar cane Variety RB 86-7515; assay: Greenhouse pot test: effect of formulated abamectin on vigour; type: in vivo; details: Carretel with one bud; 100 g ai/ha; 42 days after planting
Procedure: Greenhouse test with sugarcane buds growing in pots were conducted to study the effect of formulated abamectin regarding “vigour”, tillers, plant height, leaf width and culm diameter on sugar cane Variety RB 86-7515.
Twenty 1 L pots were filled with 16 L of clay soil, 1.6 L of sand and 8 g of nitrogen, 28 g of phosphorus (P2O5) and 16 g of potassium (K2O). Six carretels of 4 cm length with only one bud were planted in each pot (treatments 1, 2, 4 and 5). Two stalks with three buds were planted in each control pot (treatments 3 and 6) to simulate conventional planting. A layer of 3 cm of soil was used to cover the carretels. The carretels of treatments 1, 2 were treated with 200 ml/ha of abamectin, by dipping the carretels in the slurry for 3 min, based on the uptake capacity of carretels. The stalks were treated simulating a furrow application at 100 L·ha^−1 of slurry. Experimental design adopted was randomized complete block with four replications. The pots were maintained with adequate moisture during the test. Evaluations of: plant height, leaf width, culm diameter and number of tillers were done at 20, 30 and 42 days after planting.

[2] = tested on: sugar cane Variety RB 86-7515; assay: Greenhouse pot test: effect of formulated fipronil on vigour; type: in vivo; details: result in words
Procedure: Greenhouse test with sugarcane buds growing in pots were conducted to study the effect of fipronil equivalent to an application rate of 200 g. ha^−1 on “vigour”, evaluating tillers, plant height, leaf width and culm diameter on sugar cane Variety RB 86-7515.
Twenty 1 L pots were filled with 16 L of clay soil, 1.6 L of sand and 8 g of nitrogen, 28 g of phosphorus (P2O5) and 16 g of potassium (K2O). Six carretels of 4 cm length with one bud were planted in each pot (treatments 1, 2, 4 and 5). Two stalks with three buds were planted in each control pot (treatments 3 and 6) to simulate conventional planting. A layer of 3 cm of soil was used to cover the carretels. The carretels of treatments 1 and 2 were treated with 200 g ai·ha^−1 of fipronil, by dipping the carretels in the slurry for 3 min, based on the uptake capacity of carretels. The stalks were treated simulating a furrow application at 100 L·ha^−1 of slurry. Experimental design adopted was randomized complete block with four replications. The pots were maintained with adequate moisture during the test. Evaluations of: plant height, leaf width, culm diameter and number of tillers were done at 20, 30 and 42 days after planting.

[3] = tested on: sugarcane Variety RB 86-7515; assay: Greenhouse pot test: effect of formulated thiamethoxam on vigour; type: in vivo, sugar cane; details: result in words
Procedure: This trial was conducted on Variety RB 86-7515.

abamectin
Tillers [1]: 14 number

N#Cc1nn(-c2c(Cl)cc(C(F)(F)F)cc2Cl)c(N)c1[S+]([O-])C(F)(F)F (centres unmarked) [Fipronil, fipronil]
height of the resultant plants in comparison with the control [2]: decreased the height

CN1COCN(Cc2cnc(Cl)s2)/C1=N\[N+](=O)[O-] [Thiamethoxam, thiamethoxam]
number of tillers in comparison with the corresponding controls ([3]; carretels): increased number of tillers | plant height in comparison with the corresponding controls ([3]; carretels): reduced plant height | “quality” compared with the other treatments ([3]; overall assessment, not apparent from the listed parameters): increase in “quality” greater than the other treatments

Source: patent publication US20100263095A1, “METHOD FOR GROWING SUGARCANE” (SYNGENTA CROP PROTECTION, INC., priority 2007, published 2010)
